Laboratory results reported in ChEMBL document CHEMBL1127972 (Bioorg Med Chem Lett, 1994).
Where a chain is given by its changes, count along the chain named.

Columns and labels:
[1] = molecular target: T1, Muscarinic acetylcholine receptor M1 (Rattus norvegicus, UniProt P08482); assay: In vitro binding affinity towards Muscarinic acetylcholine receptor M1 by the displacement of [3H]pirenzepine in rat cerebral cortical membranes; assay type: cell membranes, Membrane
T1 sequence (P08482 whole entry): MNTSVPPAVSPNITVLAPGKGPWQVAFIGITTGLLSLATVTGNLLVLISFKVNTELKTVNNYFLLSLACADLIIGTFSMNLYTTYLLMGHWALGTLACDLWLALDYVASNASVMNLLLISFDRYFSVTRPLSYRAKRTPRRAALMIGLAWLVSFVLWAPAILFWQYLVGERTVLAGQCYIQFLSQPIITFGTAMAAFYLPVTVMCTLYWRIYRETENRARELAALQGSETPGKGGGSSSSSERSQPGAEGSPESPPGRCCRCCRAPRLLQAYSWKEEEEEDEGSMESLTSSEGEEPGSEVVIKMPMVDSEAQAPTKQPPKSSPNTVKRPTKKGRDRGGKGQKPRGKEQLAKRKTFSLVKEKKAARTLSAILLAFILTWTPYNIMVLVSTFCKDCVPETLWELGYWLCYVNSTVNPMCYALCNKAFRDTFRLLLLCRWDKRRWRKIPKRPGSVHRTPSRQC

[2] = molecular target: T2, Muscarinic acetylcholine receptor M1 (Homo sapiens) (UniProt P11229); assay: Percent stimulation of phospholipid hydrolysis in BHK cells transfected with human Muscarinic acetylcholine receptor M1 compared to maximal stimulation of carbachol at a dose of 100 uM; assay type: functional, cell-based
T2 sequence (whole entry): T1 sequence (P08482 whole entry) with V5A, S254T, S309P, K320R, G337A, V413I

[3] = molecular target: T1, Muscarinic acetylcholine receptor M1; assay: In vitro binding affinity towards Muscarinic acetylcholine receptor M1 by the displacement of [3H]oxotremorine-M in rat brain membranes; assay type: cell membranes

Compound | IC50 [1] [nM] | Stimulation [2] [%] | IC50 [3] [nM]
CCC#CCCOc1nsnc1C1=CCC(C)N(C)C1 (stereo not drawn) | 5 | 12 | 6
CCCCOc1nsnc1C1=CCC(C)N(C)C1 (stereo not drawn) | 8 | 9 | 9
COc1nsnc1C1=CC(C)CN(C)C1 (stereo not drawn) | 580 | – | 600
C=CCCCOc1nsnc1C1=CCC(C)N(C)C1 (stereo not drawn) | 8 | 12 | 10
CCCOc1nsnc1C1=CC(C)CN(C)C1 (stereo not drawn) | 15 | 6 | 17
CCCCCCOc1nsnc1C1=CCC(C)N(C)C1 (stereo not drawn) | 5 | 27 | 6
COc1nsnc1C1=C(C)CCN(C)C1 | 1000 | – | 1000
CCCCCOc1nsnc1C1=CCC(C)N(C)C1 (stereo not drawn) | 5 | 18 | 9
COc1nsnc1C1=CCCN(C)C1 | – | 7 | –
CCCCCCOc1nsnc1C1=C(C)CCN(C)C1 | 112 | – | 100
CCCCCCOc1nsnc1C1=CCCN(C)C1 | – | 70 | –
CCOc1nsnc1C1=CCC(C)N(C)C1 (stereo not drawn) | 24 | 10 | 11
CCCCCCOc1nsnc1C1=CC(C)CN(C)C1 (stereo not drawn) | 7 | 12 | 14
CCCOc1nsnc1C1=CCCN(C)C1 | – | 25 | 2
CCCCCCOc1nsnc1C1=CCCN(C)C1C (stereo not drawn) | 48 | – | 83
CCCCCCOc1nsnc1C1=CC2(C)CCCCC2(C)N(C)C1 (stereo not drawn) | 1230 | – | 1000
